Results published in patent US7524821B2, “Scaffolded maleimide clusters for multivalent peptide assembly” (priority 2002, dated 2009).
Like-named read-outs stand apart in the source and are kept apart here.

How the values were obtained:
[1] = Circular dichroism (CD) spectroscopy, α-helix content; format: physicochemical; details: based on [θ]222 and proposed formula, 50 mM phosphate buffer pH 7.4
Method: FIG. 11. CD spectra of the MVP-1 and DP178. The spectra were recorded with 10 uM of DP178 and 2.5 uM of MVP-1 in a phosphate buffer (50 mM, pH 7.4) at 23° C.
One application of the scaffolds is to induce special conformations of peptides. The circular dichroism (CD) spectra of the synthetic multivalent gp41 peptide (MVP-1) and peptide DP178 were recorded and compared (FIG. 11). It was shown that the multivalent assembling has a significant impact on the peptide conformation, leading to a great increase of the α-helical content for the peptide. […]
Similarly, we measured the circular dichroism (CD) spectra of the cholic acid-based multivalent peptides (36a and 37b). […]
The UV absorbance was run on Beckman DU 640 spectrophotometer. CD's spectrums were measured on Jasco-810 (CD-ORD) spectropolarimeter using quartz cuvette of 1 mm path length. […]
The samples of tetravalent peptide 26, trivalent peptides 36a and 37b, template 3α, 7α, 12α-tri-(6-Amino-3-thia-hexy-oxyl)-24-hydroxyl-5β-cholane 32, and the single peptide DP178 were prepared in a concentration ranging from 2 to 18 μM in 50 mM phosphate buffer (pH 7.4). The exact concentration of each sample was detected by UV spectrometer just prior to CD measurement. […]

[2] = aqueous buffer pH 7.0; cited from earlier work
[3] = Native gel filtration (aggregation); format: physicochemical; details: PBS, pH 7.2, 0.5 mM
Text: Accordingly, the tetravalent gp41 peptides 25 and 26, each of which contains 4 strands of the 36-mer HIV-1 gp41 peptide DP178 (T20) were synthesized (FIG. 7). […] In order to ligate the peptide to the maleimide cluster, a cysteine residue was introduced at the C-terminus of the peptide during solid phase peptide synthesis.

HIV-1 = details: laboratory-adapted strains and primary isolates / different strains of HIV, cited from earlier work

In the case of enfuvirtide, the “content of α-helix” value [1] is given as 18%, the “concentration at which monomer/tetramer equilibrium and other aggregation patterns occur” value [2] is given as “above 20 μM” and the “concentration at which peptide is monomeric” value [2] is given as “below 10 μM”. The “aggregation under native gel filtration” value [3] was “form aggregates”, the “inhibition of HIV membrane fusion” value (HIV-1) was “potent and broadly inhibitory activities” and the “inhibition of HIV membrane fusion” value (HIV-1; listed as T20) was “potently inhibit”.
